“Also recorded” adds a separate entry of the source.
How the values were obtained:
H3K27Ac = experiment: immunoblot with antibody against H3K27Ac in SK-N-MC cells; format: cell-based, human; conditions: vs vehicle-treated cells
Method: For western blot analysis, protein samples (20 μg) were run on a 4-20% gradient SDS-polyacrylamide gel (Biorad) and transferred onto a polyvinylidene fluoride (PVDF) membrane filter (0.2 μm; Biorad) using an electroblot apparatus (Bio-Rad, Hercules, Calif.) at 100V for 1 h in transfer buffer (25 mM Tris-HCl, 192 mM glycine, 0.1% SDS, 20% (v/v) methanol). The membrane was incubated in blocking solution (50 mM Tris-HCl, 200 mM NaCl, 1 mM MgCl2, pH 7.4) containing 5% non-fat dry milk powder for 1 hour at room temperature. The membrane was processed through sequential incubations with primary antibody overnight at 4° C. followed by incubation with horseradish peroxidase-conjugated species specific secondary antibody at 1:250 dilutions (Thermo Scientific Pierce). Immunoreactive proteins on the membrane were visualized using the SuperSignal™ West Pico Chemiluminescent kit (Thermo Scientific Pierce). Scanned western blots were analyzed using ImageJ software, version 1.47. Pictures were inverted and usually the background signal from an empty lane was subtracted to obtain specific signals for each lane.

SNCA mRNA = experiment: SNCA expression in SNCA-triplication iPSC-derived neurons; format: cell-based, human; conditions: SNCA-triplication iPSC-derived neurons cultured for 8 weeks, 20 μM for three days
Method: To begin neural differentiation, NPCs were dissociated with accutase and re-plated on matrigel-coated T75 flasks (CytoOne). The next day medium was fully changed to Neural Differentiation (ND) medium, which is NB medium supplemented with recombinant human BDNF and GNDF (both at 10 ng/mL; R&D Systems) and dibutyryl cyclic AMP (500 μM; Sigma), and without FGF-2. Thereafter, media was half-changed every other day. On day 7-9, differentiating neurons were gently dissociated to single cell suspension and then resuspended in pre-chilled Hank's balanced salt solution (HBSS; Gibco/Life Technologies) supplemented with 0.1% bovine serum albumin (Gibco/Life Technologies). After a wash step, cells were plated on 6- or 24-well plates pre-coated with poly-ornithine and laminin (BD Biocoat). […]
Total RNA from flash-frozen mice brain tissue, rodent primary cells, human neuroblastoma cells and iPSC-derived neuronal cells was isolated using TRIzol® (Life Technologies) following the manufacturer's protocol. RNA concentration was measured using NanoDrop spectrophotometer (Thermo Fisher Scientific, Wilmington, De.). […] Quantitative PCR was performed using TaqMan Universal PCR Master Mix (Applied Biosystems) on an ABI 7900HT instrument (Applied Biosystems) as described previously (31). […] Expression values were analyzed using the comparative threshold cycle method (31).

[1] = pharmacokinetics mouse study (plasma and brain, LC-MS/MS); format: in vivo
Method: The clenbuterol pharmacokinetic (PK) study was done in wild-type C57BL/6J male mice by ChemPartner Co., LTD in Shanghai. The study was done with 4 groups of four mice; one control group and three treatment groups with clenbuterol administered via intraperitoneal injection at dosages of 1, 5 and 10 mg/kg once every 24 hours. Following completion of the administration schedule, blood samples were collected at various time points (e.g. 0.25, 2, 8, and 24 hours), from the four mice per group per time point (final time point of 24 hours post injection). Mice were sacrificed following each blood collection and brains were removed and snap frozen. Substantia nigra was utilized for SNCA mRNA and protein analysis, whereas the other portions were used for PK studies. Plasma and brain samples were analyzed by LC-MS/MS for compound concentration at each of three concentrations and at each time point. Standard pharmacokinetic parameters (e.g. AUClast, AUCINF, terminal elimination half-life (t1/2), clearance, volume of distribution, time at maximum observed plasma concentration, etc.) were determined in both plasma and brain tissueby WinNonlin V 6.2 statistics software (Pharsight Corporation, California, USA) using a non-compartmental model.

[2] = system: NPCs carrying the SNCA triplication; experiment: Resazurin viability assay in SNCA-triplication NPCs exposed to rotenone; format: cell-based, human; conditions: 20 μM rotenone, 20 μM clenbuterol
Method: Patient-derived NPCs carrying the familial SNCA triplication were generated as described previously (28). NPCs were seeded at […] in 96-well plates (Greiner Cellcoat μClear) for HTS plate reader analysis (Polarstar Omega, BMG). For experiments with toxicants and inhibitors, NPCs were cultured under the following conditions for 18 hours unless specified differently in the experiment procedures: Standard NPC growth medium, growth medium plus 20 μM rotenone (Sigma).
For the Plate Reader HTS, each experiment was conducted with 6 replicates per cell line and treatment regimen. NPCs were treated with 20 μM clenbuterol for four days. Signals from individual wells were acquired with integration of fluorescence signals over 1 second duration by bottom read in orbital mode (8-spot measurements with 2 mm radius). Data analysis was performed using BMG Mars software. For data analysis of individual experiments, the mean±SD was plotted using GraphPad7. Non-directional Student's t-test was used for direct statistical comparisons. […]
For the Resazurin assay for reduction potential by NADPH levels, NPCs were prepared as above and then loaded with 3 μM C12-Resazurin (Ex/Em: 563 nm/587 nm) (Life Technologies) in medium (see above), for 30 min at 37° C. […] Relative C12-Resazurin fluorescence intensities were normalized to Hoechst 33342 fluorescence.

Structure (SMILES): CC(C)(C)NCC(O)c1cc(Cl)c(N)c(Cl)c1 (stereo not drawn) [clenbuterol]
- H3K27Ac levels (Western blotting) (H3K27Ac): decreased
- SNCA expression (SNCA mRNA): reduced
- brain concentration ([1]; C57BL/6J mice, 10 mg/kg intraperitoneal vs 1 and 5 mg/kg): highest
- brain/plasma ratio ([1]; C57BL/6J mice, 1, 5, or 10 mg/kg intraperitoneal, 24 hours): increased with doses of 1, 5, or 10 mg of drug per kilogram body weight; also recorded: highest brain/plasma ratio
- blood-brain barrier crossing ([1]; wild type C57BL/6J mice, intraperitoneal): crossed the blood-brain barrier
- viability [2]: rescued viability

From patent publication US20210308077A1, “COMBINATIONS INCLUDING BETA-ADRENORECEPTOR AGONISTS FOR TREATMENT OF PARKINSON`S DISEASE AND MOVEMENT DISORDERS” (The Brigham and Women`s Hospital, Inc., priority 2017, published 2021)
